# Test results from US11203586B2, “Iridinesulfonamide compound and use method thereof” (Chia Tai Tianqing Pharmaceutical Group Co., Ltd., priority 2016, dated 2021).
# What was measured:
# IDH1 (R132C) = IDH1 (R132C) (Homo sapiens (Human), UniProt O75874, R132C); test: Enzyme assay, NADPH decrease detected with Diaphorase/Resazurin; assay type: biochemical; details: 40 nM enzyme, 20 μM NADPH, incubated at 23° C. for 16 hours before α-KG; 12 concentrations
# From the text: (§1) Resazurin is a traditional redox dye, and after a redox reaction, it can be reduced from a blue resazurin without fluorescence to a pink fluorescent substance, resorufin, which can be measured and quantified with relative fluorescence unit (RFU) of fluorophotometer (Ex=530-570 nm, Em=590-620 nm). At present, resazurin is widely used for determining the viability of bacteria, cells, etc. and the enzyme activity detection of oxidoreductase. We detected the decrease of cofactor NADPH to determine the inhibitory activity of a compound against IDHm and detected the generation of cofactor NADPH to determine the inhibitory activity of a compound against IDH WT.
# (§2) The compound was pre-incubated with IDHm and NADPH, and then the reaction was initiated by adding α-KG and performed for certain time under a linear condition.
# (§3) Then, Diaphorase (lipoamide dehydrogenase) and the corresponding substrate Resazurin were added thereto for detection. Lipoamide dehydrogenase terminated the IDH2m reaction by decreasing the available cofactor NADPH, which oxidized NADPH to NADP, and reduced resazurin to high fluorescent resorufin. The amount of the remaining cofactor NADPH after a specific reaction time was quantified via an easily detectable fluorophore.
# (§4) The specific operation was as follows: 2.5 μl of the compound diluted in a 3-fold gradient was added to a 384-well plate, followed by adding 5 μL of the reaction buffer (20 mM Tris-HCl, pH 7.5; 150 mM NaCl; 10 mM MgCl2; 0.4 mg/mL BSA (Bovine Serum Albumin) and 2 mM DTT (dithiothreitol)) containing 40 nM IDH1 (R132H/R132C) and 20 μM NADPH. Then, the above test mixture was incubated at 23° C. for 16 hours, and then 2.5 μL of the reaction buffer containing 4 mM α-KG was added to initiate the reaction. After they were incubated for 60 minutes at room temperature, 5 μL of the termination mixture (0.4 U/ml Diaphorase and 20 μM Resazurin) formulated with the reaction buffer was added to convert resazurin to resorufin, so as to measure the amount of the remaining NADPH. After incubating at 23° C. for 10 minutes, fluorescence values were determined through Flexstation 3 at Ex535/Em595. The enzyme activity of each compound was respectively determined at 12 concentrations, and the data were calculated using the software GraFit6.0 (Erithacus Software) to obtain the IC50 value of each compound.
# IDH1 (R132H) [1] = target: T1, IDH1 (R132H) (Homo sapiens (Human), UniProt O75874, R132H); test: as above; assay type: biochemical; details: 40 nM enzyme, 20 μM NADPH, incubated at 23° C. for 16 hours before α-KG; 12 concentrations
# From the text: as §1, §2, §3, §4
# IDH1 (R132H) [2] = target: T1, IDH1 (R132H); test: Binding mode determination, free compound by LC-MS/MS; details: incubated with IDH1 (R132H), FIG. 1
# Method: The compounds were incubated with IDH1 (R132H), and then divided into N parts. The reaction was terminated by adding acetonitrile at different time points, and the organic phase was separated by centrifugation. The resulting samples were stored at −80° C. until analysis, and the concentration of the compounds in free from were analyzed by LC-MS/MS, mobile phase A: water (0.1% of formic acid), B: acetonitrile (0.1% of formic acid), strong needle wash solution: acetonitrile:water=9:1, weak needle wash solution: acetonitrile:water=1:9.
# Pharmacokinetic test = assay type: in vivo; details: male SD rats, oral 5 mg/kg
# Method: Male SD rats were from Beijing Vital River Laboratory Animal Technology Co., Ltd., and divided into groups (3 rats per group). The rats were intragastically administered with the test sample suspension (5 mg/kg) via a single peroral administration, respectively. The animals were fasted overnight before this study. The fasting time period was from 10 hours before administration to 4 hours after administration. Blood samples were taken at 0.25, 0.5, 1, 2, 4, 6, 8 and 24 hours after administration. After the rats were anesthetized with isoflurane using an anesthesia machine for small animal, and then 0.3 mL whole blood samples were taken from the fundus venous plexus. The blood samples were placed in heparin anticoagulant tubes, and centrifuged for 5 min at 4° C. and 4000 rpm. The plasma was transferred to centrifuge tubes, and stored at −80° C. until analysis. The samples in plasma were extracted through protein precipitation. The liquid extract was analyzed by LC-MS/MS, mobile phase A: water (0.1% of formic acid), B: acetonitrile (0.1% of formic acid), strong needle wash solution: acetonitrile:water=9:1, weak needle wash solution: acetonitrile:water=1:9.
# [3] = rat, 0.5% MC, 0.2% Tween80, plasma
# T1 sequence (O75874 whole entry R132H): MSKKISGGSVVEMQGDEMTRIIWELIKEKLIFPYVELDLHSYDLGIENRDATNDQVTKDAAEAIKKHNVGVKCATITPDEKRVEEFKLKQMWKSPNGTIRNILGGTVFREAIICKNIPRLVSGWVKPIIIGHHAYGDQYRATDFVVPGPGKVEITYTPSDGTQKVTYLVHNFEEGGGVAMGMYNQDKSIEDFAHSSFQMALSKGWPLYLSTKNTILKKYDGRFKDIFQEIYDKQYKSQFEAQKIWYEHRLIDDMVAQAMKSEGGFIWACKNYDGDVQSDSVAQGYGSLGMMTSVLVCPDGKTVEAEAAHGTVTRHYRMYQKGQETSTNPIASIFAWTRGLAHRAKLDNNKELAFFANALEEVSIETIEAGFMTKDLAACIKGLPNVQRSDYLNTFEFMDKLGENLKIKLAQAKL
# Sequence of IDH1 (R132C) (O75874 whole entry R132C): as the sequence (O75874 whole entry R132H) above, with H132C counted along it
Structure (SMILES),IC50 (IDH1 (R132H) [1]) [nM],also measured
"O=C(NC1CC(F)(F)C1)[C@H](c1ccccc1Cl)N(C(=O)CNS(=O)(=O)N1CC1)c1cccc(F)c1 [Example 25, (S)-2-(aziridine-1-sulfonylamino)-N-(1-(2-chlorophenyl)-2-((3,3-difluorocyclobutyl)amino)-2-oxoethyl)-N-(3-fluorophenyl)acetamide]",< 20,IC50 (IDH1 (R132C)): < 20 nM
"O=C(NC1CC(F)(F)C1)[C@H](c1ccccc1Cl)N(C(=O)[C@@H]1CCN(S(=O)(=O)N2CC2)C1)c1cccc(F)c1 [Example 36, (R)-1-(aziridin-1-ylsulfonyl)-N—((S)-1-(2-chlorophenyl)-2-((3,3-difluorocyclobutyl)amino)-2-oxoethyl)-N-(3-fluorophenyl)pyrrolidine-3-carboxamide]",< 20,–
"O=C(NC1CCCCC1)C(c1ccccc1Cl)N(C(=O)C1CCN(S(=O)(=O)N2CC2)C1)c1cccc(F)c1 (stereo not drawn) [Example 27, 1-(aziridin-1-ylsulfonyl)-N-(1-(2-chlorophenyl)-2-cyclohexylamino-2-oxoethyl)-N-(3-fluorophenyl)pyrrolidine-3-carboxamide]",< 20,–
"O=C(NC1CC(F)(F)C1)C(c1ccccc1Cl)N(C(=O)CNS(=O)(=O)N1CC1)c1cccc(F)c1 (stereo not drawn) [Example 10, 2-(aziridine-1-sulfonylamino)-N-(1-(2-chlorophenyl)-2-((3,3-difluorocyclobutyl)amino)-2-oxoethyl)-N-(3-fluorophenyl)acetamide]",< 20,"binding of the compound to the enzyme over time (IDH1 (R132H) [2]): increased over time; drug concentration in vivo over time (Pharmacokinetic test; PK curve FIG. 2): decreased drug concentration in vivo over time; Cmax (Pharmacokinetic test; [3]): 508 ng/mL; Tmax (Pharmacokinetic test; [3]): 15 min; half-life (Pharmacokinetic test; [3]): 90 min; AUC(0-inf) (Pharmacokinetic test; rat, 0.5% MC, 0.2% Tween80, plasma, read-out: AUCINF—obs): 794 ng·h/mL"
"O=C(NC1CC(F)(F)C1)C(c1ccccc1Cl)N(C(=O)CNS(=O)(=O)N1CC1)c1cncc(F)c1 (stereo not drawn) [Example 11, 2-(aziridine-1-sulfonylamino)-N-(1-(2-chlorophenyl)-2-((3,3-difluorocyclobutyl)amino)-2-oxoethyl)-N-(5-fluoropyridin-3-yl)acetamide]",< 100,–
"O=C(NC1CC(F)(F)C1)C(c1ccccc1Cl)N(C(=O)CCS(=O)(=O)N1CC1)c1cccc(F)c1 (stereo not drawn) [Example 14, 3-(aziridin-1-ylsulfonyl)-N-(1-(2-chlorophenyl)-2-((3,3-difluorocyclobutyl)amino)-2-oxoethyl)-N-(3-fluorophenyl)propanamide]",< 20,–
"C[C@@H](NS(=O)(=O)N1CC1)C(=O)N(c1cccc(F)c1)[C@H](C(=O)NC1CCCCC1)c1ccccc1Cl [Example 4, (R)-2-(aziridine-1-sulfonylamino)-N—((S)-1-(2-chlorophenyl)-2-(cyclohexylamino)-2-oxoethyl)-N-(3-fluorophenyl)propanamide]",< 100,–
"C[C@H]1CN1S(=O)(=O)NCC(=O)N(c1cccc(F)c1)C(C(=O)NC1CCCCC1)c1ccccc1Cl (stereo partly drawn) [Example 32, 2-(2-chlorophenyl)-N-cyclohexyl-2-(N-(3-fluorophenyl)-2-(((S)-2-methylaziridine)-1-sulfonylamino)acetamido)acetamide]",< 20,–
"O=C(NC1CC(F)(F)C1)[C@H](c1ccccc1Cl)N(C(=O)[C@H]1CCN(S(=O)(=O)N2CC2)C1)c1cccc(F)c1 [Example 34, (S)-1-(aziridin-1-ylsulfonyl)-N—((S)-1-(2-chlorophenyl)-2-((3,3-difluorocyclobutyl)amino)-2-oxoethyl)-N-(3-fluorophenyl)pyrrolidine-3-carboxamide]",< 20,–
"O=C(NC1CC(F)(F)C1)C(c1ccccc1Cl)N(C(=O)CCNS(=O)(=O)N1CC1)c1cccc(F)c1 (stereo not drawn) [Example 8, 3-(aziridine-1-sulfonylamino)-N-(1-(2-chlorophenyl)-2-((3,3-difluorocyclobutyl)amino)-2-oxoethyl)-N-(3-fluorophenyl)propanamide]",< 20,–
"O=C(NC1CCC(F)(F)CC1)C(c1ccccc1Cl)N(C(=O)CNS(=O)(=O)N1CC1)c1cccc(F)c1 (stereo not drawn) [Example 30, 2-(aziridine-1-sulfonylamino)-N-(1-(2-chlorophenyl)-2-(4,4-difluorocyclohexylamino)-2-oxoethyl)-N-(3-fluorophenyl)acetamide]",< 20,–
